pIC50: −log10 of the molar value.
Experiments:
FGFR1 kinase = FGFR1 kinase (Homo sapiens (Human), UniProt P11362); assay: FGFR1 TR-FRET kinase assay; format: biochemical; settings: for inhibition at 1 µM: 1000 nM compound; for pIC50: 13 μM ATP, read-out: IC50 of FGFR1 inhibition
Method: Compounds were screened in the TR-FRET assay with FGFR1 kinase. 5 ng of FGFR1 [Upstate, USA] kinase was used for assay. The compound was incubated with the kinase for 30 minutes at RT. After the incubation, substrate mix [40 nM Ultra light poly GT (Perkin Elmer, USA) and 13 μM ATP (Sigma)] was added. The above reaction was stopped by the addition of 40 mM EDTA after the […] kinase reaction. The Eu-labelled antiphospho-tyrosine antibody [Perkin Elmer, USA] was added at 0.5 nM and the fluorescence emission at 615 nm/665 nm [excitation at 340 nm] was measured. The compounds were initially screened at 100 nM and 1 μM concentrations. The compounds with >50% inhibition at 100 nM of FGFR1 were taken for the full dose response studies. The final DMSO concentration in the assay was 1%. For IC50 determination, ⅓^rd serial dilution was made from the 20 mM DMSO stock solution. 2 μl of these were transferred to the test wells containing 20 μl of the reaction mixture [total reaction volume 20 μl]. The fluorescence was measured in Perkin Elmer Wallac 1420 Multilabel Counter Victor 3. The IC50 was determined by fitting the dose response data to sigmoidal curve fitting equation using GraphPad Prism software V5.

c-Met kinase = c-Met kinase (Homo sapiens (Human), UniProt P08581); assay: c-Met TR-FRET kinase assay; format: biochemical; settings: 1000 nM compound
Method: Compounds were screened in the TR-FRET assay with c-Met kinase. 0.1 ng of c-Met [expressed in-house] kinase was used for assay. The compound was incubated with the kinase for 60 min at RT. After the incubation, substrate mix [40 nM Ultra light poly GT (Perkin Elmer, USA) and 10 μM ATP (Sigma)] was added. The above reaction was stopped by the addition of 40 mM EDTA after the 30 min kinase reaction. The Eu-labelled antiphospho-tyrosine antibody [Perkin Elmer, USA] was added at 0.5 nM and the fluorescence emission at 615 nm/665 nm [excitation at 340 nm] was measured. The compounds were initially screened at 100 nM and 1 μM concentrations. The compounds with >50% inhibition at 100 nM of c-Met were taken for the full dose response studies. The final DMSO concentration in the assay was 1%. For IC50 determination, ⅓rd serial dilution was made from the 20 mM DMSO stock solution. 2 μl of these were transferred to the test wells containing 20 μl reaction mixture [total reaction volume 20 μl]. The fluorescence was measured in Perkin Elmer Wallac 1420 Multilabel Counter Victor 3. The IC50 was determined by fitting the dose response data to sigmoidal curve fitting equation using GraphPad Prism software V5.

Sequence of FGFR1 kinase (P11362 22-822): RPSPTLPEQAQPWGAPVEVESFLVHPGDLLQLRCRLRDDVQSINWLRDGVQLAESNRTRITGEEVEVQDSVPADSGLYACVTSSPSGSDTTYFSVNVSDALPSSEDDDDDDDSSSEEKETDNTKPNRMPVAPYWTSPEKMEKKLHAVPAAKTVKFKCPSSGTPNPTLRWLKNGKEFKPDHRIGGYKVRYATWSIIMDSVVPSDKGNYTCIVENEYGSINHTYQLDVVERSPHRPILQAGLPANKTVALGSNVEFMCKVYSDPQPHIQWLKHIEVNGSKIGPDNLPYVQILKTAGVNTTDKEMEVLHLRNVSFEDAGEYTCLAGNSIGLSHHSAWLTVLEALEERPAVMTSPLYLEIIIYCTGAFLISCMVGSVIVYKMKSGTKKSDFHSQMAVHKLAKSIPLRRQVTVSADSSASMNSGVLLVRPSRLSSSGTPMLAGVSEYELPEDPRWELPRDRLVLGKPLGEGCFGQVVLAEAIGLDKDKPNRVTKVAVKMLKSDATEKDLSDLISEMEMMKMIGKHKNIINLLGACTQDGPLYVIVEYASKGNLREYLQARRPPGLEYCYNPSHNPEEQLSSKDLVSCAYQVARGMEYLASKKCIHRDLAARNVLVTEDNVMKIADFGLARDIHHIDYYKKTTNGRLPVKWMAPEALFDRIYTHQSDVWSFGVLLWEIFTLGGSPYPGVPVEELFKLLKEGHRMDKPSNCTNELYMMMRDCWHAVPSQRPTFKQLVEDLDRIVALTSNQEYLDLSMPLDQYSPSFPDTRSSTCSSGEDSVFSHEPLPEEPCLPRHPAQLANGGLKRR
Sequence of c-Met kinase (P08581 25-1390): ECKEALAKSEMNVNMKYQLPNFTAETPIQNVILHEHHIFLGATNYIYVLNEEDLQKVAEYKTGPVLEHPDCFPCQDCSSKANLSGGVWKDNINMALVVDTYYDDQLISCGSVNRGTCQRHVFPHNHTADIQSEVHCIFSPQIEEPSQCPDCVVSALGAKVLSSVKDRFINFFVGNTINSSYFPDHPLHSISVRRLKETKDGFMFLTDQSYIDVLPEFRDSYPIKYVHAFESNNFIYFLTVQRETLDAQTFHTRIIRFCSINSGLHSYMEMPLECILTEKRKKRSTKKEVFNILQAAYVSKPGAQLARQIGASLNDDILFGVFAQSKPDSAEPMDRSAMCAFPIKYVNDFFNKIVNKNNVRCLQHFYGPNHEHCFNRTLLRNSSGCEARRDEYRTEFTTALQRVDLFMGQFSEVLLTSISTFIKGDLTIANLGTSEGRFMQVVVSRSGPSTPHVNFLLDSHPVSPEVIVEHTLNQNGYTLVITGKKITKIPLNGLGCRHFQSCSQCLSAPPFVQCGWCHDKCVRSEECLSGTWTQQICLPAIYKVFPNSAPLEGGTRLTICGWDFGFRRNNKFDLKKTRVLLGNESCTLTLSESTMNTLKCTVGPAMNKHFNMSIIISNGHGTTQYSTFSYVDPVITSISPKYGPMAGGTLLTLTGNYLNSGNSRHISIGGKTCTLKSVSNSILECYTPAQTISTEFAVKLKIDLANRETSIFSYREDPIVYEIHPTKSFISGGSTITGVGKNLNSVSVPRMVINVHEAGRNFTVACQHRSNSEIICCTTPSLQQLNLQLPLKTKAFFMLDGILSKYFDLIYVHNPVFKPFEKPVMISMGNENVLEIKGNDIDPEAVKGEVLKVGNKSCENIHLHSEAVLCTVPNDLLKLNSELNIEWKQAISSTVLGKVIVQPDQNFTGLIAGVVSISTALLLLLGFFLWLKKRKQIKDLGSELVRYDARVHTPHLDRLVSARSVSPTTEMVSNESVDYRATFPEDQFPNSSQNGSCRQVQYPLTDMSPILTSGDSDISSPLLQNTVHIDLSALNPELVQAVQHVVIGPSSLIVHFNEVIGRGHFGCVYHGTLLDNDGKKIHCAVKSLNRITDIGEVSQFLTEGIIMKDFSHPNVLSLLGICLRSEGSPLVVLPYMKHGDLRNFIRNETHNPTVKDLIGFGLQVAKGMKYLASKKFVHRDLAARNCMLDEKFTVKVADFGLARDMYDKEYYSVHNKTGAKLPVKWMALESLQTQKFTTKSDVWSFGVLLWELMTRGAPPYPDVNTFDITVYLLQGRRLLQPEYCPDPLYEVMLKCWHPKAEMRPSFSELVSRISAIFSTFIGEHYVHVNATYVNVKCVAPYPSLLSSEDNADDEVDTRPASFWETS

Row | inhibition at 1 µM (FGFR1 kinase) [%] | pIC50 (FGFR1 kinase) | inhibition at 1 µM (c-Met kinase) [%] | Structure (SMILES)
1 | 94 | 7.21 | 0 | O=C(NCc1ccco1)Nc1cc(-n2cccn2)cc(-n2cnc3cc(-n4cccn4)ccc32)c1 [Example 123, 1-(3-(5-(1H-pyrazol-1-yl)-1H-benzo[d]imidazol-1-yl)-5-(1H-pyrazol-1-yl)-phenyl)-3-(furan-2-ylmethyl)urea]
2 | 99 | 8.42 | 5 | CC(=O)Nc1cc(-c2ccc(F)cc2F)cc(-n2cnc3cc(-c4cnco4)ccc32)c1 [Example 22, N-(2′,4′-difluoro-5-(5-(oxazol-5-yl)-1H-benzo[d]imidazol-1-yl)biphenyl-3-yl)-acetamide]
3 | 95 | 7.43 | 5 | CC(=O)Nc1cc(-c2ccc(C)o2)cc(-n2cnc3cc(-c4cnn(CCN5CCOCC5)c4)ccc32)c1 [Example 83, N-(3-(5-methylfuran-2-yl)-5-(5-(1-(2-morpholinoethyl)-1H-pyrazol-4-yl)-1H-benzo[d]imidazol-1-yl)phenyl)acetamide]
4 | 93 | 7.68 | 2 | O=S(=O)(Nc1cc(-c2ccc(F)cc2F)cc(-n2cnc3cc(-c4cnco4)ccc32)c1)c1ccccc1 [Example 26, N-(2′,4′-difluoro-5-(5-(oxazol-5-yl)-1H-benzo[d]imidazol-1-yl)biphenyl-3-yl)-benzenesulfonamide]
5 | 94 | 7.08 | 23 | Cn1cc(-c2ccc3c(c2)ncn3-c2cc(NS(=O)(=O)N3CCCCC3)cc(-n3cccn3)c2)cn1 [Example 119, N-(3-(5-(1-methyl-1H-pyrazol-4-yl)-1H-benzo[d]imidazol-1-yl)-5-(1H-pyrazol-1-yl)phenyl)piperidine-1-sulfonamide]
6 | 91 | 7.32 | 0 | CC(C)S(=O)(=O)Nc1cc(-c2cc(F)ccc2F)cc(-n2cnc3cc(-c4cnn(CCN5CCOCC5)c4)ccc32)c1 [Example 142, N-(2′,5′-difluoro-5-(5-(1-(2-morpholinoethyl)-1H-pyrazol-4-yl)-1H-benzo[d]-imidazol-1-yl)biphenyl-3-yl)propane-2-sulfonamide]
7 | 97 | 7.85 | 0 | CCS(=O)(=O)Nc1cc(-c2ccc(F)cc2F)cc(-n2cnc3cc(-c4cnn(C)c4)cnc32)c1 [Example 133, N-(2′,4′-difluoro-5-(6-(1-methyl-1H-pyrazol-4-yl)-3H-imidazo[4,5-b]pyridin-3-yl)biphenyl-3-yl)ethanesulfonamide]
8 | 93 | 7.47 | 12 | CC(C)S(=O)(=O)Nc1cc(-c2ccc(F)cc2F)cc(-n2cnc3cc(-c4cnco4)ccc32)c1 [Example 25, N-(2′,4′-difluoro-5-(5-(oxazol-5-yl)-1H-benzo[d]imidazol-1-yl)biphenyl-3-yl)-propane-2-sulfonamide]
9 | 96 | 7.80 | 15 | CC(=O)Nc1cc(-c2ccc(C)o2)cc(-n2cnc3cc(-c4cnn(CCN(C)C)c4)ccc32)c1 [Example 82, N-(3-(5-(1-(2-(dimethylamino)ethyl)-1H-pyrazol-4-yl)-1H-benzo[d]imidazol-1-yl)-5-(5-methylfuran-2-yl)phenyl)acetamide]
10 | 98 | 7.49 | 11 | CCS(=O)(=O)Nc1cc(-c2ccc(F)cc2)cc(-n2cnc3cc(-n4cccn4)ccc32)c1 [Example 72, N-(5-(5-(1H-pyrazol-1-yl)-1H-benzo[d]imidazol-1-yl)-4′-fluorobiphenyl-3-yl)-ethanesulfonamide]
11 | 99 | 8.00 | 0 | CC(=O)Nc1cc(-c2ccc(F)cc2)cc(-n2cnc3cc(-n4cccn4)ccc32)c1 [Example 70, N-(5-(5-(1H-pyrazol-1-yl)-1H-benzo[d]imidazol-1-yl)-4′-fluorobiphenyl-3-yl)-acetamide]
